The supplement of paper PMC10307832

Experiments:
Assay in all cases: relative viability (nuclei count vs DMSO), 5 days (fraction); higher = more cells survive
Decitabine + Crizotinib = compound: Nc1ncn([C@H]2C[C@H](O)[C@@H](CO)O2)c(=O)n1 [Decitabine] + C[C@@H](Oc1cc(-c2cnn(C3CCNCC3)c2)cnc1N)c1c(Cl)ccc(F)c1Cl [Crizotinib] (partner 1 µM)
Outline: (§1)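 Dosing by pin tool came one day after lung cancer cell lines were seeded in 1536-well plates, using either one drug or a fixed anchor-drug dose plus five library-drug doses (not always all listed) in √10 steps. After 5 days, nuclei were counted on 4× images. Relative viability is treated-well nuclei count divided by vehicle-well nuclei count, and values are medians of duplicate plates.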

Decitabine + Palbociclib = compound: Nc1ncn([C@H]2C[C@H](O)[C@@H](CO)O2)c(=O)n1 [Decitabine] + CC(=O)c1c(C)c2cnc(Nc3ccc(N4CCNCC4)cn3)nc2n(C2CCCC2)c1=O [Palbociclib] (partner 0.5 µM)
Outline: as §1

Halofuginone + OSI-027 = compound: O=C(C[C@H]1NCCC[C@@H]1O)Cn1cnc2cc(Br)c(Cl)cc2c1=O (racemic) [Halofuginone] + COc1cccc2cc(-c3nc([C@H]4CC[C@H](C(=O)O)CC4)n4ncnc(N)c34)[nH]c12 [OSI-027] (partner 0.5 µM)
Outline: as §1

Cediranib + Phenformin = compound: COc1cc2c(Oc3ccc4[nH]c(C)cc4c3F)ncnc2cc1OCCCN1CCCC1 [Cediranib] + N=C(N)NC(=N)NCCc1ccccc1 [Phenformin] (partner 250 µM)
Outline: as §1

Cell Line | relative viability (Decitabine + Crizotinib; first compound 0.04 µM) | relative viability (Decitabine + Crizotinib; first compound 0.1265 µM) | relative viability (Decitabine + Crizotinib; first compound 0.4 µM) | relative viability (Decitabine + Crizotinib; first compound 1.265 µM) | relative viability (Decitabine + Crizotinib; first compound 4 µM) | relative viability (Decitabine + Palbociclib; first compound 0.04 µM) | relative viability (Decitabine + Palbociclib; first compound 0.1265 µM) | relative viability (Decitabine + Palbociclib; first compound 0.4 µM) | relative viability (Decitabine + Palbociclib; first compound 1.265 µM) | relative viability (Decitabine + Palbociclib; first compound 4 µM) | relative viability (Halofuginone + OSI-027; first compound 0.001 µM) | relative viability (Halofuginone + OSI-027; first compound 0.003162 µM) | relative viability (Halofuginone + OSI-027; first compound 0.01 µM) | relative viability (Halofuginone + OSI-027; first compound 0.03162 µM) | relative viability (Halofuginone + OSI-027; first compound 0.1 µM) | relative viability (Cediranib + Phenformin; first compound 0.04 µM) | relative viability (Cediranib + Phenformin; first compound 0.1265 µM) | relative viability (Cediranib + Phenformin; first compound 0.4 µM) | relative viability (Cediranib + Phenformin; first compound 1.265 µM) | relative viability (Cediranib + Phenformin; first compound 4 µM)
NCI-H2405 | 0.807 | 0.759 | 0.671 | 0.562 | 0.41 | 0.511 | 0.516 | 0.436 | 0.397 | 0.349 | 0.71 | 0.656 | 0.638 | 0.619 | 0.577 | 0.358 | 0.422 | 0.378 | 0.38 | 0.368
NCI-H3122 | 0.258 | 0.251 | 0.277 | 0.346 | 0.28 | 0.2 | 0.213 | 0.183 | 0.181 | 0.191 | 0.894 | 1.05 | 0.867 | 0.943 | 0.384 | 0.374 | – | 0.364 | 0.36 | 0.363
PC-3 [JPC-3] | – | 0.728 | 0.388 | 0.536 | 0.516 | – | 0.572 | 0.496 | 0.493 | 0.511 | 0.798 | 0.804 | 0.75 | 0.76 | 0.736 | 0.462 | 0.498 | 0.489 | 0.472 | 0.468
PC-14 | – | 0.57 | 0.258 | 0.27 | 0.225 | 0.435 | 0.36 | 0.264 | 0.112 | 0.098 | 0.828 | 0.962 | 0.704 | 0.471 | 0.0328 | 0.593 | 0.756 | 0.508 | 0.517 | 0.567
RERF-LC-KJ | 0.812 | 0.77 | 0.245 | 0.551 | 0.561 | 1.02 | 1.02 | 0.404 | 0.633 | 0.636 | 0.618 | 0.609 | 0.537 | 0.565 | 0.488 | 0.42 | 0.442 | 0.386 | 0.476 | 0.426
SK-LU-1 | 0.668 | 0.614 | 0.352 | 0.484 | 0.453 | 0.39 | 0.342 | 0.325 | 0.345 | 0.303 | 0.388 | 0.399 | 0.406 | 0.341 | 0.276 | 0.541 | 0.708 | 0.497 | 0.456 | 0.439
SK-MES-1 | 0.866 | 0.703 | 0.329 | 0.333 | 0.289 | 0.315 | 0.304 | 0.303 | 0.277 | 0.319 | 0.679 | 0.666 | 0.557 | 0.498 | 0.152 | 0.663 | 0.748 | 0.618 | 0.626 | 0.639
SW 1573 | 0.627 | 0.961 | 0.724 | 0.507 | 0.358 | 0.429 | 0.407 | 0.367 | 0.228 | 0.251 | 0.919 | 0.85 | 0.571 | 0.509 | 0.143 | 0.35 | 0.336 | 0.329 | 0.394 | 0.416
